PubChem BioAssay AID1963449 (Molecular Pharmacology Branch, DTP, NCI, 2024)
pIC50: −log10 of the molar value.

Test system: 596521-263-R-J1-PDC complex spheroid growth
Assay: Anticancer human tumor 596521-263-R-J1-PDC patient-derived soft tissue sarcoma cell line growth inhibition [Asc]
Conditions: for pIC50: curve of first compound; for viability, T/C: stronger effect = lower value
How it was run: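 Complex solid-tumor spheroids incorporating human endothelial and mesenchymal stem cells received single agents or combinations over half-log dilution ranges anchored to clinical Cmax.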
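Also: spheroids exposed to compounds for 7 days.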

- pIC50 (second compound 0.00949 µM): 6.70
- pIC50 (second compound 0.03 µM): 6.74
- pIC50 (second compound 0.0949 µM): 6.80
- pIC50 (second compound 0.3 µM): 6.67
- pIC50 (second compound 0.949 µM): 6.98
- pIC50 (second compound 3 µM): 6.90
SMILES: COc1c(OCCCN2CCOCC2)ccc2c3n(c(=NC(=O)c4cnc(N)nc4)nc12)CCN3 + CCN1C(C(=O)NC23CCC(C(=O)O)(CC2)CC3)C(c2cccc(Cl)c2F)C2(C(=O)Nc3cc(Cl)ccc32)C12CCCCC2
- viability, T/C (second compound 0.00949 µM, first compound 0.00316 µM): 93.1%
- viability, T/C (second compound 0.00949 µM, first compound 0.01 µM): 90.5%
- viability, T/C (second compound 0.00949 µM, first compound 0.0316 µM): 70.4%
- viability, T/C (second compound 0.00949 µM, first compound 0.1 µM): 67.6%
- viability, T/C (second compound 0.00949 µM, first compound 0.316 µM): 39.1%
- viability, T/C (second compound 0.00949 µM, first compound 1 µM): 24%
- viability, T/C (second compound 0.03 µM, first compound 0.00316 µM): 97.5%
- viability, T/C (second compound 0.03 µM, first compound 0.01 µM): 96.7%
- viability, T/C (second compound 0.03 µM, first compound 0.0316 µM): 80%
- viability, T/C (second compound 0.03 µM, first compound 0.1 µM): 59.4%
- viability, T/C (second compound 0.03 µM, first compound 0.316 µM): 42%
- viability, T/C (second compound 0.03 µM, first compound 1 µM): 34.9%
- viability, T/C (second compound 0.0949 µM, first compound 0.00316 µM): 87.7%
- viability, T/C (second compound 0.0949 µM, first compound 0.01 µM): 96.3%
- viability, T/C (second compound 0.0949 µM, first compound 0.0316 µM): 78.3%
- viability, T/C (second compound 0.0949 µM, first compound 0.1 µM): 59.1%
- viability, T/C (second compound 0.0949 µM, first compound 0.316 µM): 37.5%
- viability, T/C (second compound 0.0949 µM, first compound 1 µM): 31.4%
- viability, T/C (second compound 0.3 µM, first compound 0.00316 µM): 99.9%
- viability, T/C (second compound 0.3 µM, first compound 0.01 µM): 83.8%
- viability, T/C (second compound 0.3 µM, first compound 0.0316 µM): 79.9%
- viability, T/C (second compound 0.3 µM, first compound 0.1 µM): 64.8%
- viability, T/C (second compound 0.3 µM, first compound 0.316 µM): 39.9%
- viability, T/C (second compound 0.3 µM, first compound 1 µM): 29.9%
- viability, T/C (second compound 0.949 µM, first compound 0.00316 µM): 103%
- viability, T/C (second compound 0.949 µM, first compound 0.01 µM): 97.3%
- viability, T/C (second compound 0.949 µM, first compound 0.0316 µM): 75.3%
- viability, T/C (second compound 0.949 µM, first compound 0.1 µM): 50.9%
- viability, T/C (second compound 0.949 µM, first compound 0.316 µM): 36.1%
- viability, T/C (second compound 0.949 µM, first compound 1 µM): 30.1%
- viability, T/C (second compound 3 µM, first compound 0.00316 µM): 87.5%
- viability, T/C (second compound 3 µM, first compound 0.01 µM): 85.4%
- viability, T/C (second compound 3 µM, first compound 0.0316 µM): 78.2%
- viability, T/C (second compound 3 µM, first compound 0.1 µM): 52.3%
- viability, T/C (second compound 3 µM, first compound 0.316 µM): 40.1%
- viability, T/C (second compound 3 µM, first compound 1 µM): 38.7%
